Assay results published in patent US20150210660A1, “ALICYCLIC EPOXY COMPOUND AND METHOD FOR PRODUCING SAME” (DAICEL CORPORATION, priority 2012, published 2015).

Key:
[1] = Evaluation of reactivity with acid (stirring with 2-ethylhexanoic acid in 1,3,5-trimethylbenzene at 150° C.); format: physicochemical; details: for Oxirane oxygen content: HBr titrimetry; for Acid value: JIS K 0070
Procedure: A mixture was prepared by blending 5.2 g of the 3,4-epoxycyclohexylmethyl 3,5,5-trimethylhexanoate prepared in Example 1 (product of Example 1), 1.4 g of 2-ethylhexanoic acid (trade name Octanoic Acid, supplied by Kyowa Hakko Chemical Co., Ltd.), and 8.5 g of 1,3,5-trimethylbenzene (reagent, supplied by Wako Pure Chemical Industries, Ltd.). The mixture was stirred at 150° C. for 6 hours. The acid value and oxirane oxygen content of the mixture were measured before the stirring with heating, and 2 hours, 4 hours, and 6 hours into the stirring.
The oxirane oxygen content measurement in the evaluation of reactivity with acid was performed by HBr titrimetry in which titration was performed with a N/10 hydrogen bromide solution in acetic acid and with crystal violet as an indicator. The acid value measurement was performed in conformance with a method described in JIS K 0070.
Instead of 3,4-epoxycyclohexylmethyl 3,5,5-trimethylhexanoate, there were prepared 3,4-epoxycyclohexylmethyl(3,4-epoxy)cyclohexane carboxylate (trade name CELLOXIDE 2021P, supplied by Daicel Corporation), 4-vinylcyclohexene oxide (trade name CELLOXIDE 2000, supplied by Daicel Corporation), 1-methyl-4-(2-methyloxiranyl)-7-oxabicyclo[4.1.0]heptane (trade name CELLOXIDE 3000, supplied by Daicel Corporation), D-limonene oxide (supplied by Nippon Terpene Chemicals, Inc.), and di-2-ethylhexyl epoxyhexahydrophthalate (trade name SANSO CIZER E-PS, supplied by New Japan Chemical Co., Ltd.). These epoxides were used in charged amounts given in Table 1 and subjected to evaluation of reactivity with an acid (2-ethylhexanoic acid) by the above procedure.
Table 2 also gives acid residual percentages as calculated from the acid values. The acid residual percentages are percentages of the acid present in the system (in the mixture) at the individual timings (after 2 hours, 4 hours, and 6 hours) in which the amount of the acid present in the system before the stirring with heating (0 hour) was defined as 100%.

[2] = Volatility evaluation: boiling point measurement under reduced pressure using a distillator; format: physicochemical
Procedure: The 3,4-epoxycyclohexylmethyl 3,5,5-trimethylhexanoate prepared in Example 1 was subjected to boiling point measurement under reduced pressure using a distillator.
The measured boiling points at the individual pressures were plotted on a logarithmic graph (semilogarithmic graph with the logarithmic scale indicating the pressure) to give an approximate curve. Using the approximate curve, a boiling point of the product at normal atmospheric pressure (760 Torr; 101325 Pa) was calculated and found to be 307° C.

[3] = stirring time 0 hr (before heating), defined as 100%
[4] = stirring time 0 hr (before heating)
[5] = stirring time 2 hrs at 150° C., calculated from acid values, 0 hr = 100%
[6] = stirring time 4 hrs at 150° C., calculated from acid values, 0 hr = 100%
[7] = stirring time 6 hrs at 150° C., calculated from acid values, 0 hr = 100%

SMILES	Acid residual percentage [1, 3]	Oxirane oxygen content [1, 4]	Acid value [1, 4]	Oxirane oxygen content ([1]; stirring time 2 hrs at 150° C.)	Acid value ([1]; stirring time 2 hrs at 150° C.)	Acid residual percentage [1, 5]	Oxirane oxygen content ([1]; stirring time 4 hrs at 150° C.)	Acid value ([1]; stirring time 4 hrs at 150° C.)	Acid residual percentage [1, 6]	Oxirane oxygen content ([1]; stirring time 6 hrs at 150° C.)	Acid value ([1]; stirring time 6 hrs at 150° C.)	Acid residual percentage [1, 7]	boiling point at normal atmospheric pressure ([2]; 760 Torr, 101325 Pa, calculated from approximate curve of the measured boiling points)	boiling point ([2]; at 11 Torr (1467 Pa))	boiling point ([2]; at 31 Torr (4133 Pa))	boiling point ([2]; at 50 Torr (6666 Pa))	acid-scavenging capability (reactivity with the acid) ([1]; as compared with the other epoxides of Table 2)
C=CC1CCC2OC2C1 (centres unmarked) [CELLOXIDE 2000, 4-vinylcyclohexene oxide]	100%	1.92%	35.90 KOH-mg/g	146%	23.80 KOH-mg/g	66%	1.25%	17.54 KOH-mg/g	49%	1.15%	12.90 KOH-mg/g	36%	–	–	–	–	–
O=C(OCC1CCC2OC2C1)C1CCC2OC2C1 (centres unmarked) [CELLOXIDE 2021P, 3,4-epoxycyclohexylmethyl(3,4-epoxy)cyclohexane carboxylate]	100%	2.00%	37.56 KOH-mg/g	1.51%	21.23 KOH-mg/g	57%	1.33%	14.54 KOH-mg/g	39%	1.11%	11.22 KOH-mg/g	30%	–	–	–	–	–
CC1(C2CCC3(C)OC3C2)CO1 (centres unmarked) [CELLOXIDE 3000, 1-methyl-4-(2-methyloxiranyl)-7-oxabicyclo[4.1.0]heptane]	100%	1.81%	36.04 KOH-mg/g	0.91%	24.52 KOH-mg/g	68%	0.71%	22.04 KOH-mg/g	61%	0.61%	18.65 KOH-mg/g	52%	–	–	–	–	–

More lines, now with the values ahead:

Acid residual percentage [1, 3]	Oxirane oxygen content [1, 4]	Acid value [1, 4]	Oxirane oxygen content ([1]; stirring time 2 hrs at 150° C.)	Acid value ([1]; stirring time 2 hrs at 150° C.)	Acid residual percentage [1, 5]	Oxirane oxygen content ([1]; stirring time 4 hrs at 150° C.)	Acid value ([1]; stirring time 4 hrs at 150° C.)	Acid residual percentage [1, 6]	Oxirane oxygen content ([1]; stirring time 6 hrs at 150° C.)	Acid value ([1]; stirring time 6 hrs at 150° C.)	Acid residual percentage [1, 7]	boiling point at normal atmospheric pressure ([2]; 760 Torr, 101325 Pa, calculated from approximate curve of the measured boiling points)	boiling point ([2]; at 11 Torr (1467 Pa))	boiling point ([2]; at 31 Torr (4133 Pa))	boiling point ([2]; at 50 Torr (6666 Pa))	acid-scavenging capability (reactivity with the acid) ([1]; as compared with the other epoxides of Table 2)	SMILES
100%	1.92%	38.36 KOH-mg/g	1.56%	26.27 KOH-mg/g	68%	1.38%	22.44 KOH-mg/g	58%	1.25%	19.15 KOH-mg/g	50%	–	–	–	–	–	C=C(C)C1CCC2(C)OC2C1 [D-Limonene oxide, D-limonene oxide]
100%	1.82%	37.66 KOH-mg/g	1.20%	20.32 KOH-mg/g	54%	1.00%	13.13 KOH-mg/g	35%	0.89%	9.98 KOH-mg/g	27%	307 °C	191 °C	218 °C	233 °C	higher acid-scavenging capability	CC(CC(=O)OCC1CCC2OC2C1)CC(C)(C)C (centres unmarked) [Product of Example 1, 3,4-epoxycyclohexylmethyl 3,5,5-trimethylhexanoate]
100%	1.84%	38.13 KOH-mg/g	1.72%	33.80 KOH-mg/g	89%	1.63%	32.16 KOH-mg/g	84%	1.53%	27.97 KOH-mg/g	73%	–	–	–	–	–	CCCCC(CC)COC(=O)C1CC2OC2CC1C(=O)OCC(CC)CCCC (centres unmarked) [SANSO CIZER E-PS, di-2-ethylhexyl epoxyhexahydrophthalate]
